Converted amounts (≈) assume the structure as drawn.

The conditions of the data set: buffer; pH 7.4; 200.0 µM.
The compound `CCOc1ccc(C(=O)NCC(c2cccs2)N2CCOCC2)cc1` (centres undefined) came in with a solubility (kinetic) of over 54.1 µg/mL.
The compound `CC(OC(=O)c1ccc(Cl)cc1O)C(=O)NCCC1=CCCCC1` (centres undefined) yielded a kinetic solubility of 32.9 µg/mL (≈ 93.5 µM).
The result for `CCN(CC)Cc1c(O)ccc2c(=O)c(-c3ccccc3Cl)coc12` reads over 53.7 µg/mL.
For the compound `CCCCC(=O)NNC(=O)N1c2ccccc2Sc2ccccc21`, the solubility (kinetic) was over 51.2 µg/mL.
Then `Cc1noc(C)c1C(=O)N(CC(C)C)c1nc2ccccc2s1`, with 1.2 µg/mL (≈ 3.64 µM); and `COc1ccc(CC(CN)c2ccccc2)cc1` (centres undefined), with 29.5 µg/mL (≈ 122 µM); and `COc1ccc(NC(=O)c2ccc3[nH]c(C)c(C)c3c2)cc1`, with 3.6 µg/mL (≈ 12.2 µM).
The result for `O=C(NC1CCCCC1)c1ccc(-c2ccc(Cl)cc2)o1` reads under 0.7 µg/mL; that for `Cc1cccc(CC(=O)c2c[nH]c3ccccc23)c1`, 0.9 µg/mL (≈ 3.61 µM); that for `COc1ccc(NC(=O)NC2CCCCCCC2)cc1OC`, 2.7 µg/mL (≈ 8.81 µM).
For the compound `Cc1cccc(NS(=O)(=O)c2cccc([N+](=O)[O-])c2)n1`, the kinetic solubility is over 44 µg/mL.
Then `O=C(COC(=O)Cc1ccc(Cl)cc1)NC1CCCC1`, with over 44.4 µg/mL; and `CC(=O)Nc1ccc(NC(=O)c2sc(-c3ccccc3)nc2C)cc1`, with 0.9 µg/mL (≈ 2.56 µM).
`Cc1nn(C)c(C)c1NC(=O)c1ccc(Br)o1`: the kinetic solubility is over 44.7 µg/mL.
The result for `N/C(=N\OC(=O)c1ccc([N+](=O)[O-])cc1)c1ccccn1` reads 3.2 µg/mL (≈ 11.2 µM); that for `O=C(NCc1cccnc1)C1CC(c2ccccc2Cl)=NO1` (centres undefined), over 47.4 µg/mL; that for `Cc1nc2c(C#N)cnn2c2c1CCN2CC1CCCO1` (centres undefined), over 42.5 µg/mL.
Then `COc1ccc(S(=O)(=O)N2CCCCCC2)cc1C(=O)OCC(=O)NC1CCS(=O)(=O)C1` (centres undefined), with over 73.3 µg/mL.
Then `Cc1ccc(C(=O)NCCNC(=O)c2ccccn2)cc1`, with over 42.5 µg/mL; and `Cc1cc(Nc2ccc(C(=O)O)cc2)nc(N)n1`, with 28 µg/mL (≈ 115 µM); and `S=C(Nc1ccccc1)Nc1ccccc1-n1cccc1`, with 34.2 µg/mL (≈ 117 µM).
In turn, `CC(C)NC(=O)c1c(O)c2cccc3c2n(c1=O)CCC3` showed a solubility (kinetic) of under 0.3 µg/mL.
Then `CN1C(=O)N(C)c2cccc3cccc1c23`, with 0.8 µg/mL (≈ 3.77 µM); and `COc1ccc(NC(=S)NCCN2CCOCC2)cc1`, with over 44.3 µg/mL.
Then `CCn1ccc(C(=O)NCc2ccc3c(c2)OCO3)n1`, with over 41 µg/mL; and `O=C(COC(=O)CNC(=O)C1CCCCC1)Nc1cccc(F)c1`, with over 50.5 µg/mL.
Then `COc1ccc(C(=O)Nc2ccccc2N2CCCC2)cc1`, with 25.6 µg/mL (≈ 86.4 µM); and `CS(=O)(=O)N1CCC(C(=O)NCc2ccc3c(c2)OCO3)CC1`, with over 51.1 µg/mL; and `CCC(CC)C(=O)NCc1ccc(OC)cc1`, with 32.7 µg/mL (≈ 139 µM).
For the compound `Cc1ccccc1OC(C)C(=O)Nc1ccc2c(c1)OCO2` (centres undefined), the solubility (kinetic) came out at 38.8 µg/mL (≈ 130 µM).
Then `Cl.NCCc1c[nH]c2ccc(O)cc12`, with over 31.9 µg/mL.
The result for `CCN(CC)c1ccc(C(=O)OCc2c(C)noc2C)cc1` reads 2.8 µg/mL (≈ 9.26 µM); that for `O=C(NCCc1ccc(Cl)cc1)c1ccc2nc[nH]c2c1`, over 45 µg/mL; that for `O=C(O)C1=NN(c2ccccc2)C(=O)C1`, over 30.6 µg/mL.
The result for `COCCCNc1ncnc2c1sc1nc(-c3ccco3)c3c(c12)CC(C)(C)OC3` reads 1.3 µg/mL (≈ 3.06 µM).
`O=C(Nc1ccccc1C(=O)O)C1=NN=CC1` came in with a solubility (kinetic) of over 34.7 µg/mL.
Then `O=C(NCCc1ccccn1)c1cc2ccccc2o1`, with 37.7 µg/mL (≈ 142 µM); and `O=C(O)c1c2c(nc3ccccc13)/C(=C/c1ccc(O)cc1)CCC2`, with over 49.7 µg/mL.
Then `O=C(Nc1nc(-c2ccc(F)c(F)c2)cs1)c1cnccn1`, with 0.8 µg/mL (≈ 2.51 µM).
The compound `CCOCCCNC1=C(Cl)C(=O)c2ccccc2C1=O` yielded a solubility (kinetic) of 31.9 µg/mL (≈ 109 µM).
Then `CCOC(=O)N1CCC(NS(=O)(=O)c2ccc(C)c(Cl)c2)CC1`, with over 54.1 µg/mL.
The result for `COc1ccc(C2(c3ccc(OC)cc3)NC(=O)NC2=O)cc1` reads over 46.8 µg/mL; that for `COc1ccccc1C(=O)NCCC(=O)Nc1ccc(C)cn1`, 43.7 µg/mL (≈ 139 µM).
Then `CC(C)(C)S(=O)(=O)c1cnc(N2CCCC2)nc1N`, with 37.9 µg/mL (≈ 133 µM); and `O=C(NCc1cccnc1)Nc1ccccc1C(F)(F)F`, with over 44.3 µg/mL.
Turning to `CC(=O)c1ccc(NC(=O)Nc2ccc3c(c2)nc(C)n3C)cc1`, the solubility (kinetic) is 4.1 µg/mL (≈ 12.7 µM).
The result for `CN1CCCN(C(=O)c2cccc3ccccc23)CC1` reads over 40.3 µg/mL; that for `O=C(C#Cc1ccccc1)Nc1ccccc1F`, 25.4 µg/mL (≈ 106 µM); that for `COc1ccccc1C(=O)Nc1ccncc1`, 33.4 µg/mL (≈ 146 µM).
The result for `CC1CCCC(NC(=O)COC(=O)CCC(=O)c2ccc(F)cc2)C1C` (centres undefined) reads 11.5 µg/mL (≈ 31.6 µM); that for `CC(=O)N1CCN(CC(=O)Nc2ccc(C)c(F)c2)CC1.Cl`, 46.8 µg/mL; that for `CS(=O)(=O)N(Cc1ccccc1Cl)c1ccc(C(=O)N2CCCC2)cc1`, 55.7 µg/mL (≈ 142 µM).
Then `COc1ccc(CNC(=S)Nc2ccccc2)cc1Cl`, with 31.7 µg/mL (≈ 103 µM); and `COC(=O)c1sc(SC)c(-c2ccon2)c1C`, with under 0.6 µg/mL.
`O=C(Cc1nc(-c2cnccn2)no1)NNC(=O)Nc1ccccc1` displayed a kinetic solubility of over 50.9 µg/mL.
Turning to `COc1cc(NC(=S)N(C)C)c(OC)cc1Cl`, the kinetic solubility is over 41.2 µg/mL.
Then `Cc1ccc(C)c(NC(=O)CN(C)C(=O)CC2OC(=O)c3ccccc32)c1` (centres undefined), with over 55 µg/mL; and `CCCCCC(=O)Nc1ccc(S(=O)(=O)Nc2nccc(C)n2)cc1`, with over 54.4 µg/mL; and `Cc1c(-c2nc(-c3ccc(C(C)(C)C)cc3)no2)n(C)oc1=O`, with under 0.2 µg/mL.
The result for `CCCc1cc(C(=O)OC)c(NC(=O)CCCC(=O)O)s1` reads over 47 µg/mL.
The result for `Cc1cc(N)nc(SCC(=O)N2C(C)CCCC2C)n1` (centres undefined) reads 38.3 µg/mL (≈ 130 µM); that for `CN1C(=O)CC(c2ccccc2)Nc2ccccc21.Cl` (centres undefined), over 43.3 µg/mL.
`CC(CN1CCOCC1)OC(=O)c1ccccc1Cl.Cl` (centres undefined) registered a solubility (kinetic) of over 48 µg/mL.
The result for `COc1ccc(NC(=O)COC(=O)Cc2ccsc2)c(OC)c1` reads 50.1 µg/mL (≈ 149 µM); that for `S=C(NCc1ccccc1)NC1CCCCC1`, over 37.3 µg/mL; that for `CCCN1C(=O)N(c2cccc(C)c2)C(C)(O)CC1(C)C` (centres undefined), over 43.6 µg/mL.
Then `CC1CN(C(=O)c2cc3cc(F)ccc3[nH]2)CC(C)O1` (centres undefined), with 32.2 µg/mL (≈ 117 µM); and `Cc1cccc(/C=C/c2onc(C)c2[N+](=O)[O-])n1`, with 2.8 µg/mL (≈ 11.4 µM); and `Cc1cc(C(=O)CCC(=O)Nc2ncccc2O)c(C)s1`, with over 45.7 µg/mL.
Then `COc1ccc(NC(=O)C2=NN(C3CCS(=O)(=O)C3)C(=O)CC2)cc1S(N)(=O)=O` (centres undefined), with over 66.7 µg/mL; and `COc1cc(C(=S)N2CCCC2)ccc1OCC(N)=O`, with over 44.2 µg/mL.
The compound `CCOc1ccc(NS(=O)(=O)c2cc(C)c(C)cc2C)cc1` displayed a kinetic solubility of 10.2 µg/mL (≈ 31.9 µM).
Then `CC(C)NC(=O)N1CCC(c2nc3ccccc3s2)CC1`, with over 45.5 µg/mL.
The result for `O=C(CN1C(=O)NC(Cc2c[nH]c3ccccc23)C1=O)Nc1ccccc1C(F)(F)F` (centres undefined) reads over 64.6 µg/mL; that for `O=C(O)c1cc(NS(=O)(=O)c2ccc(F)cc2)cc(NS(=O)(=O)c2ccc(F)cc2)c1`, over 70.3 µg/mL.
Then `C=C(C)C1CC=C(CN2CCN(Cc3ccccc3)CC2)CC1` (centres undefined), with 17.8 µg/mL (≈ 57.3 µM); and `Cc1cccc(NC(=S)Nc2ccccn2)c1`, with 1.6 µg/mL (≈ 6.58 µM).
Turning to `CC(=O)Nc1cccc(NC(=S)Nc2cccc(Cl)c2C)c1`, the solubility (kinetic) turned out to be 44.9 µg/mL (≈ 134 µM).
Then `CCOc1ccccc1NC(=O)NCc1cccnc1`, with over 40.7 µg/mL; and `C[n+]1ccc(C(=O)NCc2ccccc2)cc1.[I-]`, with 39.3 µg/mL; and `COc1ccc2c(=O)c(C(=O)NCc3ccccc3)c[nH]c2c1`, with 2.3 µg/mL (≈ 7.46 µM).
The result for `O=C(NC1CCCC1)C1CCN(c2cnccn2)CC1` reads over 41.2 µg/mL; that for `Cc1cc(C(=O)CN2C(=O)NC(CC(C)C)C2=O)c(C)n1C1CC1` (centres undefined), 22.7 µg/mL (≈ 68.5 µM).
The result for `O=S(=O)(Nc1ccccc1N1CCOCC1)c1c(F)cc(F)cc1Br` reads 2.3 µg/mL (≈ 5.31 µM); that for `CN(C)S(=O)(=O)c1ccc(Cl)c(NC(=O)COC(=O)CCC2CCCCC2)c1`, 7.3 µg/mL (≈ 16.9 µM); that for `Cc1[nH]c2ccc(C(=O)N3CCN(Cc4ccccc4)CC3)cc2c1C`, over 52.1 µg/mL.
As for `CCn1c(CNC(=O)c2ccccc2F)cc2ccccc21`, the solubility (kinetic) was found to be 2 µg/mL (≈ 6.75 µM).
The result for `Cc1ccc(C2=NOC3(CC(=O)N(c4ccccc4)C3=O)C2)cc1` (centres undefined) reads 45.2 µg/mL (≈ 141 µM).
Then `NC(=O)C1CCCCc2c1[nH]c1ccc(Cl)cc21` (centres undefined), with over 39.4 µg/mL; and `NC(=O)C1CCN(CCC(=O)Nc2ccc(F)c(F)c2)CC1`, with over 46.7 µg/mL; and `COc1ccccc1NC(=O)O/N=C(\N)c1ccccc1`, with over 42.8 µg/mL.
The result for `COc1ccccc1CN1C(=O)CNC1=S` reads over 35.4 µg/mL.
In turn, `COc1ccc(C=O)cc1CSc1ccccn1` showed a solubility (kinetic) of 38.2 µg/mL (≈ 147 µM).
The result for `[Br-].c1ccc(-c2c[n+]3c(n2-c2ccccc2)CCC3)cc1` reads over 51.2 µg/mL.
`C=C(C)CSc1nc2sc3c(c2c(=O)n1-c1ccc(C)cc1)CCN(C)C3` yielded a kinetic solubility of 25.6 µg/mL (≈ 64.4 µM).
The result for `CC(=O)Nc1nnc(SCC(=O)NC2CCCC2)s1` reads over 45.1 µg/mL.
Then `NC(=O)C1CCN(S(=O)(=O)c2ccccc2[N+](=O)[O-])CC1`, with 39.8 µg/mL (≈ 127 µM).
In the case of `Cc1ccc(CN2C(=O)C3CCCN3c3ncccc32)cc1` (centres undefined), the kinetic solubility stood at 33.3 µg/mL (≈ 114 µM).
Then `Cn1ccsc1=NC(=O)c1ccc(Cl)c([N+](=O)[O-])c1`, with 0.5 µg/mL (≈ 1.68 µM); and `O=C(NCC(c1cccs1)N1CCc2ccccc21)c1ccccc1` (centres undefined), with under 0.4 µg/mL; and `CCCc1nc2ccccc2c(=O)n1CCc1ccccc1`, with 1.7 µg/mL (≈ 5.81 µM).
With `C=CCOc1ccc(/C=C/C(=O)OCC(=O)N2CCN(C(C)=O)CC2)cc1`, the solubility (kinetic) is over 55.9 µg/mL.
In turn, `Cc1ccc(OCCn2cc(C(=O)O)c3ccccc32)cc1` showed a solubility (kinetic) of 44.3 µg/mL (≈ 150 µM).
The result for `CC(NC(=O)c1ccc2ccccc2n1)c1ccccc1` (centres undefined) reads 18.9 µg/mL (≈ 68.4 µM).

The record behind these values is PubChem BioAssay AID1996.
